The source of these data is patent US9775902B2, “Compounds and methods for treatment of stroke” (FIBROGEN, INC, priority 2006, dated 2017).

One test has as its system VEGF. The experiment in a line: Plasma VEGF in mice after intravenous injection. The class given is in vivo, Swiss Webster mice. Particulars: mouse plasma, 20 mg/kg i.v., four hours after injection; for fold induction at 20 mg/kg: iv, 4 h, read-out: VEGF Fold Increase. The method, then:
(§1) The effect of compounds of the present invention on expression of cytoprotective and neuroprotective factors in vivo was evaluated as follows. In one series of experiments, male Swiss Webster mice (29-34 g) were administered various compounds of the present invention via intravenous injection into the caudal tail vein. Animals treated by intravenous injection received a 6 ml/kg volume of either 5% Dextrose with an equimolar amount of NaOH or Meglumine (vehicle control) or 20 mg/kg of a compound of the present invention in 5% dextrose with an equimolar amount of NaOH or Meglumine. Four hours after injection, the animals were anesthetized and exsanguinated. Plasma samples were collected in EDTA and heparin coated microtainer tubes. Plasma samples were assayed for erythropoietin and VEGF using commercially-available ELISA kits purchased from R & D Systems (Minneapolis Minn.).

The test system of test [1] is erythropoietin (EPO). The experiment in a line: EPO expression in Hep3B cells (QUANTIKINE immunoassay of conditioned media). The class given is cell-based, Human. The conditions noted are these: for Fold Increase Over Control: EPO, vs 1% DMSO control; for EPO: conditioned media after overnight incubation with compound. How it is done: The effect of compounds of the present invention on expression of cytoprotective and neuroprotective factors in cells was evaluated as follows. Human cells derived from hepatocarcinoma (Hep3B) tissue (see, e.g., American Type Culture Collection, Manassas Va.) were seeded into 35 mm culture dishes and grown at 37° C., 20% O2, 5% CO2 in Minimal Essential Medium (MEM), Earle's balanced salt solution (Mediatech Inc., Herndon Va.), 2 mM L-glutamine, 0.1 mM non-essential amino acids, 1 mM sodium pyruvate, and 10% FBS. When cell layers reached confluence, the media was replaced with OPTI-MEM media (Invitrogen Life Technologies, Carlsbad Calif.) and cell layers were incubated for approximately 24 hours in 20% O2, 5% CO2 at 37° C. Various compounds of the present invention or 1% DMSO (negative control) were then added to existing media and incubation was continued overnight.
Following incubation, the conditioned media was collected from cell cultures and analyzed for erythropoietin (EPO) expression using a QUANTIKINE immunoassay (R&D Systems, Inc., Minneapolis Minn.) according to the manufacturer's instructions.

Test [2] relates to erythropoietin (EPO). Nature of the test: EPO expression in Kelly neuroblastoma cells. The class given is cell-based. The conditions noted are these: for EPO: conditioned media after overnight incubation. How it is done:
(§2) The effect of compounds of the present invention on expression of cytoprotective and neuroprotective factors in neuroblastoma cells was evaluated as follows. Kelly neuroblastoma cells (see, e.g., DSMZ, cat# ACC-355, Braunschweig Germany) were treated with various compounds of the present invention or 1% DMSO (negative control). Following an overnight incubation, the conditioned media was collected from cell cultures and analyzed for erythropoietin (EPO) and vascular endothelial growth factor (VEGF) expression using a QUANTIKINE immunoassay (R&D Systems, Inc., Minneapolis Minn.) according to the manufacturer's instructions.

For test [3], the system named is C57BL/6 mice, permanent occlusion of the MCA. The experiment in a line: Permanent middle cerebral artery occlusion (pMCAO) in C57BL/6 mice: infarct volume and edema. The class given is in vivo. Particulars: C57BL/6 mice pMCAO, 20-60 mg/kg i.v., compound given 0 hr. How it is done: The effect of compounds of the present invention on infarct volume and edema associated with stroke was examined in an animal model of ischemic stroke. In these studies, mice were subjected to permanent occlusion of the middle cerebral artery. Mice were anesthetized intraperitoneally with avertin (0.5 mg/g). Mice were then immobilized in a rodent stereotaxic frame (Kopf Instruments, Tujunga Calif.) and maintained with avertin as needed. The surgical area of the head was swabbed with 70% ethanol and a lateral incision was made between the right orbit and the right ear. […] The distal course of the middle cerebral artery (MCA) was visible through the translucent skull. A small burr-hole craniotomy was performed with a micro-drill (Fine Science Tools, Foster City Calif.). The meninges/dura was removed and the MCA was coagulated by bipolar diathermy. The muscle and soft tissue were replaced and the incision closed with vet-bond adhesive (3M, St. Paul Minn.). These studies were performed in two different mouse models of pMCAO as described below.
In one series of experiments, male C57BL/6 mice (25-35 g) were subjected to permanent occlusion of the MCA as described above. Compounds of the present invention were administered by intravenous injection at various times before or after MCA occlusion (see Table 7). Animals administered compound by intravenous injection received a 6 ml/kg volume of either 5% Dextrose with an equimolar amount of Meglumine (vehicle control) or 20-60 mg/kg of a compound of the present invention in 5% dextrose with an equimolar amount of Meglumine. Body temperature of the animals was maintained by use of a heating pad both during and after surgery. Twenty-four hours after MCA occlusion animals were euthanized with CO2 and their brains removed. After removal, the brain was sliced in 7 coronal sections, each 1 mm thick. The sections were placed rostral side down in a petri dish and stained with 1% Triphenyl tetrazolium chloride for 20 minutes at 37° C. for determination of infarct volume. Brain sections were then digitally photographed and analyzed for changes in infarct volume and extent of edema. Infarct volumes were determined by measuring the infarcted (i.e., non-stained) areas of each brain section and multiplying this value by the section thickness. Extent of edema was determined by the net increase in volume of the ipsilateral cortex compared to that of the contralateral cortex of brain sections.
The effect of compounds of the present invention administered at various times following the onset of stroke was examined further as follows. In these studies, changes in infarct volume were measured using an animal model of stroke when compounds of the present invention were administered from 0 to 8 hours following permanent MCA occlusion. In one series of experiments, male C57BL/6 mice (25-35 g) were subjected to permanent occlusion of the MCA as described above. Compound F was administered to the animals by a single intravenous bolus injection at various times up to 5 hours after MCA occlusion (see Table 8 below). Animals administered compound by intravenous injection received a 6 ml/kg volume of either 5% Dextrose with an equimolar amount of NaOH (vehicle control) or 60 mg/kg of Compound F in 5% dextrose with an equimolar amount of NaOH. Body temperature of the animals was maintained by use of a heating pad both during and after surgery. Changes in infarct volumes were determined as described above.
In another set of experiments, male C57BL/6 mice (25-35 g) were subjected to permanent occlusion of the MCA as described above. Compound F was administered by single intravenous bolus injection at various times up to 8 hours after MCA occlusion (see Table 9 below). Animals administered compound by intravenous injection received a 6 ml/kg volume of either 5% Dextrose with an equimolar amount of Meglumine (vehicle control) or 60 mg/kg of Compound F in 5% dextrose with an equimolar amount of Meglumine. […]

The subject of test [4] is vascular endothelial growth factor (VEGF). The experiment in a line: VEGF expression in Kelly neuroblastoma cells. Particulars: for VEGF: conditioned media after overnight incubation. The class given is cell-based. How it is done:
as §2

The subject of another test is erythropoietin. The experiment in a line: Plasma EPO in mice after intravenous injection. The class given is in vivo, Swiss Webster mice. Particulars: mouse plasma, 20 mg/kg i.v., four hours after injection; for fold induction at 20 mg/kg: iv, 4 h, read-out: EPO Fold Increase; for EPO: mouse EPO ELISA kit (**). How it is done: as §1
Background: An ELISA detects its analyte on a solid surface through an enzyme-linked reagent.

Marks after values point to notes of the source that are not given here.

`O=Cc1nc(C(=O)NCC(=O)O)c(O)c2cc(Oc3ccccc3)ccc12` [Compound AK, [(1-Formyl-4-hydroxy-6-phenoxy-isoquinoline-3-carbonyl)-amino]-acetic acid]: in the test with VEGF, the fold induction at 20 mg/kg was 1.12 and the VEGF is 47 pg/mL. In the test with erythropoietin (EPO) [1], the “Fold Increase Over Control” value is 14.9 and the EPO came out at 35.3 mIU/ml. In the test on erythropoietin (EPO) [2], the “EPO Fold Increase” value stood at 2.23 and the EPO was determined as 42.2 mIU/ml. Besides, the “Percent Reduction in Edema” value in test [3] is −12* %. The inhibition in vivo at up to 20 mg/kg in test [3] (Mus musculus, iv, 24 h, 24 hours after MCA occlusion, read-out: Percent Reduction in Infarct Volume) worked out at 13%. For the same molecule, in test [4], the “VEGF Fold Increase” value is given as 3.9 and the VEGF came to 5698 pg/mL. Moreover, in the test on erythropoietin, the fold induction at 20 mg/kg came out at 62.8 and the EPO turned out to be 2763 pg/mL.

Consider `O=C(O)CNC(=O)c1ncc2cc(Oc3ccccc3)sc2c1O` [Compound AG, [(7-Hydroxy-2-phenoxy-thieno[3,2-c]pyridine-6-carbonyl)-amino]-acetic acid], for which, in the test on VEGF, the fold induction at 20 mg/kg came to 1.76 and the VEGF came to 51 pg/mL. In addition, in the test with erythropoietin (EPO) [1], the “Fold Increase Over Control” value came out at 8.5 and the EPO turned out to be 27.3 mIU/ml. For the same molecule, in the test with erythropoietin (EPO) [2], the “EPO Fold Increase” value is 14.44 and the EPO worked out at 273 mIU/ml. Moreover, in test [4], the “VEGF Fold Increase” value is recorded as 5.9 and the VEGF turned out to be 8670 pg/mL. In the test on erythropoietin, the fold induction at 20 mg/kg was found to be 1.91 and the EPO was 303 pg/mL.

As to `N#Cc1nc(C(=O)NCC(=O)O)c(O)c2sccc12` [Compound AH, [(4-Cyano-7-hydroxy-thieno[3,2-c]pyridine-6-carbonyl)-amino]-acetic acid], in the test on VEGF, the fold induction at 20 mg/kg was determined as 1.76 and the VEGF came out at 44 pg/mL. In the test on erythropoietin (EPO) [1], the “Fold Increase Over Control” value turned out to be 7.1 and the EPO came to 13.4 mIU/ml. In the test on erythropoietin (EPO) [2], the “EPO Fold Increase” value was 11.95 and the EPO is reported as 225.8 mIU/ml. Also, in test [4], the “VEGF Fold Increase” value is on record as 4.5 and the VEGF is 6590 pg/mL. In the test on erythropoietin, the fold induction at 20 mg/kg came to 11.6 and the EPO came to 1242 pg/mL.

As for `CCc1c(O)c(C(=O)NCC(=O)O)nc2cc(Cl)ccc12` [Compound AT, [(7-Chloro-4-ethyl-3-hydroxy-quinoline-2-carbonyl)-amino]-acetic acid], in the test with VEGF, the fold induction at 20 mg/kg stood at 1.02 and the VEGF is 43 pg/mL. Moreover, in the test on erythropoietin (EPO) [1], the “Fold Increase Over Control” value is recorded as 30.0 and the EPO amounted to 81.0 mIU/ml. For the same molecule, in the test on erythropoietin (EPO) [2], the “EPO Fold Increase” value was determined as 31.08 and the EPO is 587.5 mIU/ml. For the same molecule, in test [4], the “VEGF Fold Increase” value is 8.3 and the VEGF was found to be 11350 pg/mL. Besides, in the test on erythropoietin, the fold induction at 20 mg/kg worked out at 3.84 and the EPO stood at 169 pg/mL.

In the case of `O=C(O)CNC(=O)c1nc(Br)c2cc(Br)sc2c1O` [Compound AD, [(2,4-Dibromo-7-hydroxy-thieno[3,2-c]pyridine-6-carbonyl)-amino]-acetic acid], in the test with VEGF, the fold induction at 20 mg/kg is 2.54 and the VEGF came out at 66 pg/mL. In the test with erythropoietin (EPO) [1], the “Fold Increase Over Control” value was 6.5 and the EPO stood at 34.9 mIU/ml. In the test on erythropoietin (EPO) [2], the “EPO Fold Increase” value came to 7.3 and the EPO is 138.2 mIU/ml. In test [4], the “VEGF Fold Increase” value was determined as 3.5 and the VEGF came out at 5123.0 pg/mL. Also, in the test on erythropoietin, the fold induction at 20 mg/kg came out at 27.4 and the EPO amounted to 1997 pg/mL.

Take `COc1cccc(Oc2cccc3c(O)c(C(=O)NCC(=O)O)nc(C#N)c23)c1` [Compound AP, {[1-Cyano-4-hydroxy-8-(3-methoxy-phenoxy)-isoquinoline-3-carbonyl]-amino}-acetic acid]: in the test with VEGF, the fold induction at 20 mg/kg came to 0.43 and the VEGF came out at 27 pg/mL. For the same molecule, in the test with erythropoietin (EPO) [1], the “Fold Increase Over Control” value worked out at 17.2 and the EPO is reported as 53.4 mIU/ml. Further, in the test on erythropoietin (EPO) [2], the “EPO Fold Increase” value is 1.44 and the EPO amounted to 27.2 mIU/ml. For the same molecule, in test [4], the “VEGF Fold Increase” value is on record as 2.2 and the VEGF was found to be 3266 pg/mL. In the test with erythropoietin, the fold induction at 20 mg/kg was determined as 20.1 and the EPO is 3595 pg/mL.

Take `Cc1nc2ccc(Oc3ccc4c(C#N)nc(C(=O)NCC(=O)O)c(O)c4c3)cc2o1` [Compound AQ, {[1-Cyano-4-hydroxy-6-(2-methyl-benzooxazol-6-yloxy)-isoquinoline-3-carbonyl]-amino}-acetic acid]: in the test with VEGF, the fold induction at 20 mg/kg was 1.69 and the VEGF worked out at 59 pg/mL. Besides, in the test with erythropoietin (EPO) [1], the “Fold Increase Over Control” value was 16.5 and the EPO came out at 32.9 mIU/ml. Besides, in the test with erythropoietin (EPO) [2], the “EPO Fold Increase” value is on record as 4.34 and the EPO was found to be 82 mIU/ml. In test [4], the “VEGF Fold Increase” value is on record as 2.6 and the VEGF was determined as 3795 pg/mL. Moreover, in the test with erythropoietin, the fold induction at 20 mg/kg came out at 23.8 and the EPO turned out to be 11464 pg/mL.
